Reference: US7235267B1, “Brain cell or nerve cell-protecting agents comprising medicinal ginseng” (priority 1999, dated 2007)
Like-named read-outs stand apart in the source and are kept apart here.

Experiments:
[1] = test system: Bcl-xL mRNA; experiment: RT-PCR of Bcl-xL mRNA in cerebral cortex after intravenous ginsenoside Rb1; format: in vivo, rat; details: intravenous 60 μg/day; 4th and 6th hour after MCA permanent occlusion; vs sham and saline
Description: The present inventors investigated whether or not intravenous administration of low doses of ginsenoside Rb1 increases expression of Bcl-xL mRNA in brain tissues. For this purpose, for example, SH-SP rats (body weight 250-300 g), at the age of 12 weeks, were used. Immediately after permanent occlusion of the MCA in SH-SP rats under inhalation anesthesia, ginsenoside Rb1 dissolved in physiological saline was infused once intravenously (60 μg), and subsequently ginsenoside Rb1 was intravenously infused continuously at the dose of 60 μg/day. Control animals with MCA permanent occlusion and sham-operated animals received the same amount of physiological saline after MCA permanent occlusion.
Group 2 consists of animals with the same experimental conditions. Sham indicates sham-operated animals; Rb1(−) indicates animals with cerebral infarction administered with physiological saline; and Rb1(+) indicates animals with cerebral infarction administered intravenously with ginsenoside Rb1. At the 4th hour or the 6th hour after the sham operation and MCA permanent occlusion, animals were anesthetized with chloral hydrate, and the left cerebral cortex (i.e. the cerebral cortex on the side of MCA permanent occlusion) was dissected out and total RNA was prepared for RT-PCR. The mRNA of β-actin was used as the internal standard. […]

[2] = intracerebroventricular administration; cited from earlier work
[3] = test system: rats with ischemia/reperfusion or permanent occlusion of the middle cerebral artery; details: cited from earlier work
[4] = Cerebral blood flow, brain temperature, blood pressure; details: intravenous infusion 60 μg/day
[5] = intravenously administered small amount (prior application); cited from earlier work
[6] = low concentrations or low doses; cited from earlier work
[7] = Observation of animals for ill or adverse effects; format: in vivo; details: present experiments
[8] = test system: SH-SP rats with MCA permanent occlusion; details: cited from earlier work
[9] = test system: SH-SP rats with MCA permanent occlusion; experiment: Cerebral infarct lesion and brain edema after ginsenoside Rb1 (intravenous or intracerebroventricular); format: in vivo, rat; details: intravenous 6 μg/day for 28 days after MCA permanent occlusion
Description: Male SH-SP rats, at the age of 12-13 weeks, were used. Animals were bred in a room furnished with 12 hours light and dark cycles and water and feeds were supplied ad libitum. The cortical branch of the left middle cerebral artery (MCA) of SH-SP rats were coagulated and cut under inhalation anesthesia. Immediately after MCA permanent occlusion, ginsenoside Rb1 dissolved in physiological saline was infused once intravenously (6 μg or 60 μg), subsequently intravenously infused continuously for 28 days by using an Alza osmotic minipump (6 μg/day or 60 μg/day).
At 32 days after MCA permanent occlusion, the SH-SP rats were anesthetized with chloral hydrate, and they were perfused and fixed transcardially with 0.1 mole phosphate buffer containing 4% paraformaldehyde. The brains were dissected out and cerebrocortical infarct lesions were photographed.
In Japanese Patent Application No. Hei 10-365560, PCT/JP99/02550 (Brain cell or nerve cell-protective agents comprising ginsenoside Rb1), Japanese Patent Application No. Hei 11-340850, PCT/JP99/06804 (Cerebrovascular regeneration/reconstruction promoters and nerve tissue secondary degeneration inhibitors comprising ginsenoside Rb1), the present inventors (Sakanaka and Tanaka) measured areas of the left cerebral hemispheres and the left cerebrocortical infarct lesions on the photographs by using an image analyzer. […]

## CC(C)=CCC[C@](C)(O[C@@H]1O[C@H](CO[C@@H]2O[C@H](CO)[C@@H](O)[C@H](O)[C@H]2O)[C@@H](O)[C@H](O)[C@H]1O)[C@H]1CC[C@]2(C)[C@@H]1[C@H](O)C[C@@H]1[C@@]3(C)CC[C@H](O[C@@H]4O[C@H](CO)[C@@H](O)[C@H](O)[C@H]4O[C@@H]4O[C@H](CO)[C@@H](O)[C@H](O)[C@H]4O)C(C)(C)[C@@H]3CC[C@]12C [ginsenoside Rb1]
[1]
  expressions of Bcl-xL mRNA in the cerebral cortex: obviously increased
[2]
  brain temperature, cerebral blood flow or blood pressure: no effects
[3]; intravenous 10 mg/kg before permanent occlusion of the middle cerebral artery
  effect on infarction: absolutely no effect
[3]; intravenous 40 mg/kg before permanent occlusion of the middle cerebral artery
  reduction of size of the infarction vs control: about 14%
[3]; single intravenous 10-40 mg/kg after the reperfusion
  reduction of infarction size vs control: 12%-35%
[3]; single intravenous 10-40 mg/kg before ischemia, ischemia/reperfusion model
  reduction of infarction size vs control: 20%-49%
[4]
  cerebral blood flow: does not affect
[5]
  transfer into the brain and nervous systems: transferred quickly
[6]
  bleeding tendency: does not promote
[7]
  ill / adverse effects on careful observation of animals: No adverse effect was detected
[8]; ginsenoside Rb1 intracerebroventricular infusion immediately after permanent MCA occlusion
  ischemia-induced place navigation disability: ameliorated
[8]; ginsenoside Rb1 repetitive or continuous intravenous 6 μg or 60 μg/day
  ischemia-induced place navigation disability: significantly ameliorated
[9]
  difference in size between left and right cerebral hemisphere (brain edema): no difference in size
[9]; all 8 cases
  cerebral infarct lesions (photographs at 32 days): obviously reduced
